# Read-outs that look alike come from different tables or passages of the source. Numbered stars: 1 amine (or outer) side, 2 acyl side, 3 side chain; on linkers, the order of the positions; unused ones are H or OH. Square brackets hold non-standard residues; d marks the D form. Peptide text beside a SMILES is read from it. βAla(3R-(1-naphthyl)) = O=C(C[C@@H](N[*:1])c1cccc2ccccc12)[*:2]
# What was measured:
# NCI-H1975 = details: read-out: IC50, antiproliferative activity in NCI-H1975; NCI-H1975 EGFR mutated NSCLC cell line
# Procedure: (§1) In a 96-well plate, 1 × 10^4 cells/well were seeded and incubated overnight at 37 °C and 5% CO2. The stock solution of the peptidemimetic was prepared by dissolving them in DMSO. Stock solutions of the compound and controls were diluted using the serum-free medium to prepare solutions of different concentrations of compounds with DMSO concentration not exceeding 1% (v/v) in the final solution in each well of a 96-well plate. […] A dose-response curve was generated using percentage cell viability vs. log concentration of compounds, and IC50 values were obtained using Prism® (GraphPad Software). Experiments were repeated three times to obtain standard deviation values.
# (§2) In vivo Studies of a Peptidomimetic that Targets EGFR
# (§3) Leeza Shrestha1, Sitanshu Singh1, Pravin Parajuli1, Achyut Dahal1, George Mattheolabakis1,
# (§4) Sharon Meyer1, Joydeep Bhattacharjee2, Seetharama Jois1*
# (§5) 1School of Basic Pharmaceutical and Toxicological Sciences, College of Pharmacy, University
# (§6) of Louisiana Monroe, Monroe, LA 71201.
# (§7) 2Biology Program, School of Sciences, University of Louisiana Monroe, Monroe, LA 71029.
# SKOV-3 = details: read-out: IC50, antiproliferative activity in SKOV-3; SKOV-3 ovarian cancer, HER2+
# Procedure: as §1, §2, §3, §4, §5, §6, §7
# [1] = system: phosphorylated HER2 protein (p-HER2); test: Western blot of HER2 phosphorylation in A549 cells; format: cell-based, human; details: 2 µM, 36 h, Western blot densitometry
# Procedure: (§8) A549 cells were treated with 2 µM 18 or 2 µM lapatinib (positive control). Cells without treatment were employed as a negative control. Cells were treated for 36 h, washed, and trypsinized. 35 μg of protein from each sample was loaded on Novex® 4-20% tris-glycine gels and transferred into nitrocellulose membranes. The membranes were blocked with 2% bovine serum albumin solution and incubated with primary antibodies overnight at 4 °C. Antibodies for the detection of total HER2 protein (t-HER2), phosphorylated HER2 protein (p-HER2), total AKT (t-AKT); (Cell Signaling Technology, phosphorylated AKT (P-Akt, S473); (Cell Signaling Technology) were used at 1:1000 dilution. Secondary antibodies with HRP conjugation was incubated for 1 h. After the addition of the substrate and enhancer solutions from a super signal enhanced chemiluminescence kit (Pierce, Rockford, IL) to the membrane, images were captured using ChemiDoc™ Touch Gel Imaging System (Bio-Rad), and band densities were quantified. A representative Western blot image was used for the final presentation. Data are from triplicates and are presented as the mean ± standard error of the mean (SEM). To evaluate the significance, statistical analysis was performed by a one-tail T-test using Prism Graph Pad (GraphPad Software, San Diego). P< 0.05 was considered statistically significant, [32].
# [2] = system: phosphorylated AKT (P-Akt, S473); test: Western blot of Akt phosphorylation in A549 cells; format: cell-based, human; details: 2 µM, 36 h, Western blot densitometry
# Procedure: as §8
# [3] = system: A549 Red-FLuc lung tumors; test: Antitumor assessment, experimental metastasis lung cancer model, bioluminescence imaging; format: in vivo; details: 18 6 mg/kg, lapatinib 10 mg/kg, twice a week; A549-Red-FLuc lung tumors in nude mice
# Procedure: All animal studies were conducted in accordance with NIH guidelines for care, and use of laboratory animals and protocols were approved by the Institutional Animal Care and Use Committee at the University of Louisiana Monroe. Bioware® Brite Cell Line A549 Red-FLuc cells that had been engineered to express firefly luciferase (Perkin Elmer) were injected into the tail vein (4.5 × 10^6 cells in 200 µl PBS per mouse) of 6-week-old Foxn1^nu-nude mice. For bioluminescence imaging, mice were anesthetized with 1-3% isoflurane and 150 mg/kg of D-luciferin (PerkinElmer) in phosphate-buffered saline (PBS) was given by intraperitoneal injection. 8 min after injection, bioluminescence was imaged with an IVIS Lumina III Series (PerkinElmer), and regions of interest (ROI) were drawn around the bioluminescent signals and quantified as photons/second (p/s). Mice with tumors were divided into three groups viz. control (vehicle), 18 treatment, and lapatinib treatment. After two weeks of the inoculation of tumor cells, mice from the respective groups were injected intravenously with 18 (6 mg/kg) or lapatinib (10 mg/kg) or vehicle twice a week for the next three weeks. To evaluate the effect of the treatments, tumors were imaged, and bioluminescence was measured once a week. […]
# HER2 phosphorylation = test: Western blot of HER2 phosphorylation in lung tumor tissue; format: in vivo, mice; details: tumors harvested day 35; 18 6 mg/kg, lapatinib 10 mg/kg
# Procedure: as §8, with “Data are from triplicates and are presented as the mean ± standard error of the mean (SEM). To evaluate the significance, statistical analysis was performed by a one-tail T-test using Prism Graph Pad (GraphPad Software, San Diego). P< 0.05 was considered statistically significant, [32].” left out
# All animal studies were conducted in accordance with NIH guidelines for care, and use of laboratory animals and protocols were approved by the Institutional Animal Care and Use Committee at the University of Louisiana Monroe. […] To evaluate the effect of the treatments, tumors were imaged, and bioluminescence was measured once a week. […]
# EGFR:HER2 dimerization = target: T1, EGFR:HER2 dimerization (Homo sapiens, UniProt P04626); test: Proximity ligation assay on lung tumor tissue, EGFR:HER2; format: in vivo, mice; details: 6 mg/kg, vs vehicle control
# T1 construct: from tissue; host or cells: Lung tumour tissue of nude mice injected IV with A549-Red-FLuc human NSCLC cells
# Procedure: (§9) The lung tissue samples with tumors were fixed on the slides. […] Antigen retrieval on the tissue section of slides was done in a steaming sodium citrate buffer (10 mM, 0.05% Tween 20, pH 6.0) for 15 min. Tissue slides were incubated with primary antibodies overnight at 4 °C and washed, and secondary antibodies PLA+ and PLA- were added. After incubation and washing, PLA detection reagents were added, [36]. The mounting medium was then added, and the slides were coverslipped. Slides were viewed using an Olympus BX63 fluorescence microscope fitted with deconvolution optics using DAPI, and Texas Red filters. Images were obtained at 40×.
# HER2:HER3 dimerization = target: T2, HER2:HER3 dimerization (Homo sapiens, UniProt P04626); test: Proximity ligation assay on lung tumor tissue, HER2:HER3; format: in vivo, mice; details: 6 mg/kg, vs vehicle control
# T2 construct: from tissue; host or cells: Lung tumour tissue of nude mice injected IV with A549-Red-FLuc human NSCLC cells
# Procedure: as §9
# [4] = system: lung, heart, kidney, liver tissue; format: in vivo, mice; details: for Lung histology (H&E) compared to vehicle: day 35, 18 6 mg/kg, lapatinib 10 mg/kg
# Procedure: For histopathological analysis, lungs, kidney, liver, heart, and pancreas were excised from the mice and fixed with 10% normal formalin solution. These fixed samples were embedded in paraffin, and slides were prepared by cutting them into 5 μm slices and mounting on the glass. Prepared slides were stained using hematoxylin and eosin (H&E) staining. Slides were visualized under a microscope (Nikon labophot 2. Type120) and pictures were taken at different magnifications for analysis. Representative pictures from histopathology analysis were used for presentation.
# [5] = mouse, in vivo, iv
# Procedure: (§10) Female Foxn1-nude, 6-7 week-old mice (Envigo) were used in all studies.
# (§11) After administration of the compound, mice were sacrificed at certain time intervals (0, 0.25, 0.75, 2, 4, 6, 12 and 24 h), and blood samples were taken to study the amount of compound remaining in blood circulation. The samples were then centrifuged at 1000 rpm for 5 min. The separated supernatant serum samples were precipitated by acetonitrile to extract the analytes and passed through the Sep-Pak (Waters) column. Chromatographic separation was performed on an HPLC. Mass spectrometry was used to identify the correct molecular ion of the intact compound.
# (§12) Blood samples were collected at different time intervals, and analysis of the sample was accomplished using HPLC and mass spectrometry. […] For pharmacokinetic parameter analysis, PKSolver software was used [50]. […] Based on the AIC, SC, and curve fitting by the PKSolver software, intravenous bolus administration/two compartmental model was selected for deriving our reported pharmacokinetic parameters.
# A549 cells = details: read-out: IC50, antiproliferative activity in A549; A549 NSCLC, HER2+; 72 h, serum-free medium, CellTiter-Glo
# Procedure: HER2 positive A549 lung cancer cell line was purchased from American Type Culture Collection (ATCC, Manassas, VA) and subcultured in RPMI media (ATCC) with 10% FBS. […] Cells were incubated in a humidified atmosphere of 5% CO2 at 37°C.
# [6] = 25 to 80 °C, 18 μM
# Procedure: Circular dichroism experiments were done using a Jasco J-815 CD Spectrometer (Jasco, Japan) at temperatures from 20 to 80 °C with a gradual 5 °C increase before reading. […] The spectra for samples were recorded from 185-350 nm wavelengths with a total of four scans for each temperature, and wavelength vs. ellipticity was plotted for an average of four scans.
# [7] = mouse, in vivo, iv; remark: listed apart in the source
# Procedure: as §10, §11, §12
# [8] = target: human serum albumin (HSA) (Homo sapiens, UniProt P02768)
# Procedure: Surface plasmon resonance analysis was performed in 0.01 M phosphate-buffered saline (NaCl 0.138 M; KCl -0.0027 M); Tween® 20 -0.05%, pH 7.4 using a Reichert Life Sciences System. Immobilization of HSA to the hydrophilic carboxymethylated dextran matrix of the CM5 sensor chip was carried out by the standard primary amine coupling method. […] All binding experiments were performed at a flow rate of 25 µL/min. After each interaction analysis, the sensor chip was regenerated with water. […] The Kd values were obtained using the 1:1 kinetic evaluation fitting tool of Tracedrawer software.
# SKBR-3 = system: SKBR-3; parameters: method as in ref 20 (Kanthala et al. Oncotarget 8(43):74244-74262); details: SKBR-3 breast cancer, HER2+; ref 20 (Kanthala et al. Oncotarget 8(43):74244-74262); read-out: IC50, antiproliferative activity in SKBR-3; cited from earlier work
# MCF-7 = MCF-7 breast cancer, HER2-; read-out: IC50, antiproliferative activity in MCF-7; cited from earlier work
# MCF-10A = system: MCF-10A; parameters: method as in ref 20 (a number printed in a supplementary file, which may have a reference list of its own: not looked up in the article's list); details: MCF-10A non-cancerous breast cell line, basal HER2; read-out: IC50, antiproliferative activity in MCF-10A; cited from earlier work
# HER2 expression = system: HER2 expression; parameters: method as in ref 20 (a number printed in a supplementary file, which may have a reference list of its own: not looked up in the article's list); details: HER2-positive breast cancer xenograft, 4 mg/kg IV; cited from earlier work
# physchem = details: buffer, pH 1
# Source text: Shimadzu FCV-20AH2 manual injector was used with Ultra C18, 5 µm (250 × 4.6 mm) column, Shimadzu SPD-20A UV/Vis detector, and Shimadzu LC-20AP pump. 40% acetonitrile (0.1% TFA) with 60% water (0.1% TFA) was used as mobile phase. Relative Peak area was plotted as % remaining compound with respect to time compared with zero time point, and data are from triplicate experiments. For pH stability, a buffer with pH 1 was obtained by adding 0.1 M HCl, and a buffer with pH 7.5 was obtained by adding 0.1 M PBS (Sigma).
# in vitro [9] = details: simulated gi fluid
# Procedure: (§13) Simulated intestinal fluid TS and simulated gastric fluid were purchased from Ricca Chemical (Arlington, TX). Pepsin (0.32 g/100 ml) was added to the simulated gastric fluid. To determine the effect of simulated gastric and intestinal fluids on 18, it (10µM) was incubated in gastric fluid with pepsin for 6 h and intestinal fluid for 12 h at 37 °C. Samples were taken at particular time intervals and analyzed using the HPLC method [33]. Methods used were similar to the methods explained above for HPLC analysis.
# in vitro [10] = details: simulated gi fluid; remark: listed apart in the source
# Procedure: as §13
# T1 sequence (P04626 23-1255): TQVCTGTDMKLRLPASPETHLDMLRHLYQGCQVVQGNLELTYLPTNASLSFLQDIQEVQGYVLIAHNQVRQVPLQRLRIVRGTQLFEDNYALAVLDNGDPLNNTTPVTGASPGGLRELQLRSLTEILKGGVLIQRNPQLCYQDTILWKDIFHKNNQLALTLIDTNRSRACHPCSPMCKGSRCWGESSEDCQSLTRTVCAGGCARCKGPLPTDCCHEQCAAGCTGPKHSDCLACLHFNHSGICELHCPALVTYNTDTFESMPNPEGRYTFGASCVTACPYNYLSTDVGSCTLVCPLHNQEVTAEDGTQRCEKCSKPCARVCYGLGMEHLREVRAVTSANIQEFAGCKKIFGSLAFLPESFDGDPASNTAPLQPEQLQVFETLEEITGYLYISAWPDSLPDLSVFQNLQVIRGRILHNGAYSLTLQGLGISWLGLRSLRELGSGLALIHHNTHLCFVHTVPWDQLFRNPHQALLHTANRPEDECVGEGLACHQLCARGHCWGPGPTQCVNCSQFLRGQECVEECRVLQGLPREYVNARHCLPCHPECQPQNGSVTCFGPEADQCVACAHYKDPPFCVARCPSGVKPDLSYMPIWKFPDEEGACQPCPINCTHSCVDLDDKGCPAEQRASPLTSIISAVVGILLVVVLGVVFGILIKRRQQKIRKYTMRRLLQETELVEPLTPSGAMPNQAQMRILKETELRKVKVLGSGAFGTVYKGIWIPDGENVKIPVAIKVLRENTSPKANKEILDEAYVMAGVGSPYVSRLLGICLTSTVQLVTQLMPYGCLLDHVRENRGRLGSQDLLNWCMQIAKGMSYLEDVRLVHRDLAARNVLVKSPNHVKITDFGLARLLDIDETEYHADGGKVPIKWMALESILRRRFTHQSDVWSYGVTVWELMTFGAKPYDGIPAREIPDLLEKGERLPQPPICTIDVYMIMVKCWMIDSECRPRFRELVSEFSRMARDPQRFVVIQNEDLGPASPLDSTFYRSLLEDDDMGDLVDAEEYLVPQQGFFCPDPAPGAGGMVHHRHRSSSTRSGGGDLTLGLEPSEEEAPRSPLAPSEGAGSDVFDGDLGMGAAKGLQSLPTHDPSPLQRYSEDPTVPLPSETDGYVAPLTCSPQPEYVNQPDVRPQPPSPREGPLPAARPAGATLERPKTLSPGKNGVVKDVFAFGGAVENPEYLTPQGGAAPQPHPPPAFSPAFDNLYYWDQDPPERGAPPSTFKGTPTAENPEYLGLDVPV
# T2 sequence (P04626 23-1255): as above
# human serum albumin (HSA), sequence (P02768 25-609): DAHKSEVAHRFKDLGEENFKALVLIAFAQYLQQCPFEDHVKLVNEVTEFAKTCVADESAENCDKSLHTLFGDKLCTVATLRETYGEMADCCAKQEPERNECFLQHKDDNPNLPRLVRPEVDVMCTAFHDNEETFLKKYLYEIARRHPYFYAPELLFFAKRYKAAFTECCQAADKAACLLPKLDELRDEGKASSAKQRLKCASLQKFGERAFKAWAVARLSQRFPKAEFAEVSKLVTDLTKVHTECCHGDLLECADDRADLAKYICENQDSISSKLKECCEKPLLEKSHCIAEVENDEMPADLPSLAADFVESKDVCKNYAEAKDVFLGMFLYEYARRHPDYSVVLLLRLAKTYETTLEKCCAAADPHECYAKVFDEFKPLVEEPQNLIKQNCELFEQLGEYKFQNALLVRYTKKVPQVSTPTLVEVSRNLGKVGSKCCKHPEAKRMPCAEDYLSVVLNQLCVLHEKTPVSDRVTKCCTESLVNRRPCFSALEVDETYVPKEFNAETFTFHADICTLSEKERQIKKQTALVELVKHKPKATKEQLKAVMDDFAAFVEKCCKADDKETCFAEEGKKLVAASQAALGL
smiles,measurement,setting,value
N=C(N)NCCC[C@@H]1NC(=O)[C@H]2CCCN2C(=O)[C@@H]2CCCN2C(=O)[C@H](CCCNC(=N)N)NC(=O)C[C@H](c2cccc3ccccc23)NC(=O)[C@H](Cc2ccccc2)NC(=O)[C@H](CC(=O)O)NC(=O)[C@H](CC(=O)O)NC(=O)[C@H](Cc2ccccc2)NC(=O)C[C@H](c2cccc3ccccc23)NC1=O [Compound 18] (cyclo(DDF[βAla(3R-(1-naphthyl))]RP[dP]R[βAla(3R-(1-naphthyl))]F)),IC50,NCI-H1975,4850 ± 217 nM
same,IC50,SKOV-3,853 ± 102 nM
same,Inhibition of phosphorylation of HER2 compared to control,[1],41.6%
same,Inhibition of phosphorylation of Akt compared to control,[2],24.7%
same,Rate of tumor growth indicated by total flux compared with vehicle,[3],decreased
same,HER2 phosphorylation in lung tumor tissue compared to control,HER2 phosphorylation,inhibited HER2 phosphorylation to a significant extent
same,EGFR:HER2 dimerization in lung tumor tissue (PLA red fluorescence),EGFR:HER2 dimerization,reduction in red fluorescence
same,HER2:HER3 dimerization in lung tumor tissue (PLA red fluorescence),HER2:HER3 dimerization,reduction in red fluorescence
same,"Toxicity to organs (heart, liver, lung, kidney), H&E","[4]; 6 mg/kg, three weeks of treatment",no significant tissue damage or toxic effects
same,Lung histology (H&E) compared to vehicle,[4],remarkably fewer tumors and less inflammatory infiltration
same,AUC(0-inf),[5],~459 µg·h/mL
same,Vd,[5],~0.011 L
same,clearance,[5],~0.00433 mL/min
same,half-life,"[5]; 4 mg/kg, Terminal half-life",~42 h
same,half-life,"[5]; 6 mg/kg, Terminal half-life",~46 h
same,half-life,[5]; Distribution half-life,~0.8 h
same,half-life,[5]; Terminal half-life in vivo,> 40 h
same,IC50,A549 cells,868 ± 32 nM
same,Change of circular dichroism spectra (backbone conformation) with temperature,[6],did not show any significant change
same,Time after which concentration decreases significantly at pH 1,pH 1,> 4 days
same,Stability at pH 7.5,pH 7.5,stable for 30 days
same,Vd peripheral,[7],~17 mL
same,Compound in free form,[8],~22%
same,IC50,SKBR-3,194 ± 46 nM
same,IC50,MCF-7,> 50000 nM
same,IC50,MCF-10A,40000 nM
same,Change in HER2 expression in xenograft tumor tissue,HER2 expression,no
same,remaining at 720 h,physchem,> 40%
same,"remaining at 6 h, 10 µM",in vitro [9],> 80%
same,"remaining at 12 h, 10 µM",in vitro [10],> 40%
"CS(=O)(=O)CCNCc1ccc(-c2ccc3ncnc(Nc4ccc(OCc5cccc(F)c5)c(Cl)c4)c3c2)o1 [lapatinib, reference compound]",Rate of tumor growth indicated by total flux compared with vehicle,[3],decreased
same,HER2 phosphorylation in lung tumor tissue compared to control,HER2 phosphorylation,inhibited HER2 phosphorylation to a significant extent
same,Lung histology (H&E) compared to vehicle,[4],remarkably fewer tumors and less inflammatory infiltration

# From PMC7477407, “In vivo studies of a peptidomimetic that targets EGFR dimerization in NSCLC” (Journal of Cancer, 2020)
